Experiments:
Test in all cases: relative viability (nuclei count vs DMSO), 5 days (fraction); higher = more cells survive
[1] = compound: COC1=CC=C(C=C1)COC2=C(C=C(C=C2)CC3=CN=C(N=C3N)N)OC [GW-2580] + N=C(N)NC(=N)NCCc1ccccc1 [Phenformin] (partner 250 µM)
Procedure, shortened: (§1)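 Relative viability equals treated-well nuclei counts divided by vehicle-well nuclei counts. Counts came from 4× images of lung cancer cell lines grown in 1536-well plates for 5 days after pin-tool dosing on the day after seeding. Dosing used one drug alone or a fixed anchor-drug dose plus five library-drug doses (not always all listed) in √10 steps, and values are medians of duplicate plates.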

[2] = compound: COC1=CC=C(C=C1)COC2=C(C=C(C=C2)CC3=CN=C(N=C3N)N)OC [GW-2580] + Cc1nc(NC(=O)N2CCC[C@H]2C(N)=O)sc1-c1ccnc(C(C)(C)C(F)(F)F)c1 [Alpelisib] (partner 2 µM)
Procedure, shortened: as §1

[3] = compound: COC1=CC=C(C=C1)COC2=C(C=C(C=C2)CC3=CN=C(N=C3N)N)OC [GW-2580] + CC(=O)Nc1cccc(-n2c(=O)n(C3CC3)c(=O)c3c(Nc4ccc(I)cc4F)n(C)c(=O)c(C)c32)c1 [Trametinib] (partner 0.02 µM)
Procedure, shortened: as §1

[4] = compound: Cc1cnc(Nc2ccc(OCCN3CCCC3)cc2)nc1Nc1cccc(S(=O)(=O)NC(C)(C)C)c1 [Fedratinib] + O=C(CCCCCCC(=O)Nc1ccccc1)NO [Vorinostat] (partner 1 µM)
Procedure, shortened: as §1

[5] = compound: Cc1cnc(Nc2ccc(OCCN3CCCC3)cc2)nc1Nc1cccc(S(=O)(=O)NC(C)(C)C)c1 [Fedratinib] + CC(C)C[C@H](NC(=O)[C@H](Cc1ccccc1)NC(=O)c1cnccn1)B(O)O [Bortezomib] (partner 0.002 µM)
Procedure, shortened: as §1

Cell Line	relative viability ([1]; first compound 0.08 µM)	relative viability ([1]; first compound 0.8 µM)	relative viability ([1]; first compound 2.53 µM)	relative viability ([1]; first compound 8 µM)	relative viability ([2]; first compound 0.08 µM)	relative viability ([2]; first compound 0.8 µM)	relative viability ([2]; first compound 2.53 µM)	relative viability ([2]; first compound 8 µM)	relative viability ([3]; first compound 0.08 µM)	relative viability ([3]; first compound 0.8 µM)	relative viability ([3]; first compound 2.53 µM)	relative viability ([3]; first compound 8 µM)	relative viability ([4]; first compound 0.1 µM)	relative viability ([4]; first compound 0.3162 µM)	relative viability ([4]; first compound 1 µM)	relative viability ([5]; first compound 0.1 µM)	relative viability ([5]; first compound 0.3162 µM)	relative viability ([5]; first compound 1 µM)
LOU-NH91	0.692	0.757	0.611	0.66	0.677	0.756	0.635	0.688	0.796	0.857	0.738	0.827	0.777	1.09	0.782	0.449	0.526	0.468
LU99A	0.773	0.823	0.647	0.808	0.496	0.522	0.354	0.528	0.668	0.646	0.499	0.462	0.454	0.513	0.41	1.12	1.14	0.466
LXF-289	0.514	0.521	0.489	0.506	1.07	1.09	0.998	0.907	0.724	0.708	0.688	0.651	0.765	0.748	0.775	1.02	0.978	0.78
NCI-H23	0.872	0.768	0.798	0.851	0.76	0.735	0.512	0.749	0.398	0.371	0.404	0.395	0.56	0.36	0.453	0.946	0.943	0.173
NCI-H322M	0.787	0.819	0.866	0.782	0.833	0.912	0.855	0.795	0.466	0.485	0.428	0.59	0.87	0.969	0.735	1.19	1.16	1.06
NCI-H441	0.997	0.852	0.773	1.05	0.972	0.853	0.718	0.699	0.409	0.463	0.483	0.374	0.921	0.749	0.615	0.538	0.484	0.236
NCI-H460	0.713	0.576	0.494	0.528	0.49	0.464	0.44	0.511	0.286	0.168	0.0886	0.187	1.14	0.768	0.736	1.84	1.13	1.04
NCI-H520	0.79	0.59	0.592	0.587	1.02	0.988	0.837	0.966	0.736	0.606	0.608	0.539	0.657	0.654	0.634	0.524	0.711	0.173
NCI-H596	0.92	0.657	0.811	0.804	0.486	0.525	0.516	0.471	0.806	0.979	0.689	0.795	0.602	0.573	0.439	1.01	1.21	0.919
NCI-H647	0.605	0.623	0.401	0.661	1.44	1.45	1.04	1.13	0.474	0.469	0.406	0.479	0.61	0.782	0.385	0.976	1.16	0.395
NCI-H650	0.43	0.474	0.392	0.481	1.26	1.06	0.914	1.14	0.945	1.06	0.953	0.907	0.381	0.42	0.332		0.84	0.77
NCI-H661	0.269	0.282	0.282	0.271	0.542	0.835	0.426	0.479	0.678	0.566	0.516	0.504	0.785	0.833	0.716	0.81	0.894	0.9
NCI-H727	0.662	0.574	0.499	0.652	0.664	0.594	0.615	0.453	0.417	0.382	0.364	0.383	1.15	1.08	1.13	0.655	0.733	0.178
NCI-H838	0.651	0.59	0.549	0.648	1.01	1.06	1.15	1.07	0.576	0.514	0.411	0.632	0.713	0.693	0.575	0.588	0.808	0.208
NCI-H1355	0.426	0.496	0.347	0.397	0.816	0.937	0.694	0.883	0.469	0.502	0.35	0.443	0.688	0.622	0.596	1.21	1.24	1.09
NCI-H1437	0.339	0.31	0.332	0.357	1.12	1.11	0.892	0.81	0.524	0.571	0.448	0.415	0.816	0.892	0.922	0.432	0.473	0.191
NCI-H1651	0.36	0.371	0.304	0.358	1.26	1.17	0.954	0.934	0.795	0.849	0.786	0.807	0.498	0.567	0.552	0.965	0.951	0.871

Cell Line	relative viability ([1]; first compound 0.08 µM)	relative viability ([1]; first compound 0.8 µM)	relative viability ([1]; first compound 2.53 µM)	relative viability ([1]; first compound 8 µM)	relative viability ([2]; first compound 0.08 µM)	relative viability ([2]; first compound 0.8 µM)	relative viability ([2]; first compound 2.53 µM)	relative viability ([2]; first compound 8 µM)	relative viability ([3]; first compound 0.08 µM)	relative viability ([3]; first compound 0.8 µM)	relative viability ([3]; first compound 2.53 µM)	relative viability ([3]; first compound 8 µM)	relative viability ([4]; first compound 0.1 µM)	relative viability ([4]; first compound 0.3162 µM)	relative viability ([4]; first compound 1 µM)	relative viability ([5]; first compound 0.1 µM)	relative viability ([5]; first compound 0.3162 µM)	relative viability ([5]; first compound 1 µM)
NCI-H1666	0.581	0.607	0.604	0.554	1.17	1.21	1	1.03	0.846	0.767	0.796	0.872	1.07	1.1	0.928	0.649	0.944	0.276
NCI-H1734	0.35	0.374	0.38	0.359	0.697	0.761	0.654	0.671	0.765	0.69	0.695	0.647	1.07	0.796	0.685	1.06	0.856	0.231
NCI-H1755	0.667	0.631	0.326	0.594	1.02	1.02	0.787	0.945	0.786	0.838	0.777	0.702	0.761	0.786	0.705	0.938	0.92	0.903
NCI-H1915	0.392	0.368	0.362	0.38	1.06	1.12	1.09	1.02	0.312	0.288	0.251	0.279	0.539	0.507	0.459	0.986	0.872	0.662
NCI-H1975	0.44	0.43	0.414	0.418	0.693	0.778	0.647	0.596	0.34	0.38	0.306	0.275	0.744	0.702	0.603	0.388	0.405	0.163
NCI-H1993	0.573	0.461	0.486	0.518	0.684	0.677		0.704	0.507	0.576	0.522	0.519	0.819	0.872	0.864	0.993	0.979	0.48
NCI-H2009	0.509	0.45	0.409	0.423	1.16	1.17	1.08	1.11	0.284	0.262	0.266	0.273	0.639	0.696	0.695	0.99	1.11	0.131
NCI-H2023	0.466	0.423	0.336	0.382	0.611	0.625	0.513	0.604	0.523	0.639	0.541	0.577	0.826	0.626	0.547	1.08	0.95	0.0957
NCI-H2085	0.756	0.739	0.682	0.769	1.1	0.924	0.924	0.792	0.526	0.515	0.484	0.638	0.77	0.825	0.787	1.04	1.09	0.416
NCI-H2087	0.526	0.473	0.352	0.444	1.23	0.999	1.02	0.613	0.178	0.204	0.2	0.227	0.728	0.734	0.825	0.806	0.754	0.259
NCI-H2126	0.52	0.535	0.543	0.526	0.757	0.772	0.719	0.714	0.547	0.575	0.5	0.649	0.732	0.786	0.708	1.08	1.12	1.07
NCI-H2228	0.395	0.371	0.358	0.318	0.91	0.886	0.627	0.775	0.483	0.51	0.364	0.511	0.744	0.589	0.545	1.35	0.866	0.408
NCI-H2347	0.423	0.482	0.241	0.47	1.02	0.968	0.915	1.05	0.294	0.277	0.266	0.268	0.533	0.494	0.587	0.82	0.874	0.722
NCI-H2405	0.401	0.393	0.308	0.333	0.794	0.718	0.751	0.751	0.68	0.586	0.596	0.563	0.946	0.982	0.814	1.05	0.77	0.957
NCI-H3122	0.41	0.366	0.339	0.341	0.85	0.878	0.671	0.758	0.305	0.264	0.18	0.234	1.07	1	0.988	0.991	0.981	0.485
PC-3 [JPC-3]	0.472	0.489	0.489	0.464	1.05	1.09	0.998	1.01	0.7	0.674	0.685	0.745	0.719	0.978	0.676	0.796	0.781	0.869
PC-14	0.358	0.82	0.494	0.615	0.995	1.14	0.864	0.906	0.806	0.675	0.585	0.637	0.761	0.83	0.727	0.885	0.81	0.951

From the supplement of paper PMC10307832
